These results are taken from ChEMBL document CHEMBL4138122, “Azaphenothiazines - promising phenothiazine derivatives. An insight into nomenclature, synthesis, structure elucidation and biological properties” (Eur J Med Chem, 2017).

Each structure is given as a SMILES string. In brackets after ≈: the same amount, converted by molar mass.

Experiment [1] has as its system C32. As to the kind of experiment: Cytotoxicity against human C32 cells. It counts as functional, cell-based.
Experiment [2] has as its system SNB-19. As to the kind of experiment: Cytotoxicity against human SNB19 cells. It counts as functional, cell-based.
Experiment [3] relates to MCF7. As to the kind of experiment: Cytotoxicity against human MCF7 cells. The format is functional, cell-based.
Experiment [4] relates to MDA-MB-231. As to the kind of experiment: Cytotoxicity against human MDA-MB-231 cells. It counts as functional, cell-based.
Experiment [5] has as its system Bacillus subtilis. The experiment is described as follows: Antibacterial activity against Bacillus subtilis. It counts as functional.
The test system of experiment [6] is Staphylococcus aureus. The experiment is described as follows: Antibacterial activity against Staphylococcus aureus. The format is functional.
In experiment [7] the test system is Escherichia coli. As to the kind of experiment: Antibacterial activity against Escherichia coli. The format is functional.
For experiment [8], the target named is Intercellular adhesion molecule 1 (Homo sapiens, UniProt P05362). The experiment is described as follows: Inhibition of ICAM1 (unknown origin).
Chain of Intercellular adhesion molecule 1 (P05362 whole entry): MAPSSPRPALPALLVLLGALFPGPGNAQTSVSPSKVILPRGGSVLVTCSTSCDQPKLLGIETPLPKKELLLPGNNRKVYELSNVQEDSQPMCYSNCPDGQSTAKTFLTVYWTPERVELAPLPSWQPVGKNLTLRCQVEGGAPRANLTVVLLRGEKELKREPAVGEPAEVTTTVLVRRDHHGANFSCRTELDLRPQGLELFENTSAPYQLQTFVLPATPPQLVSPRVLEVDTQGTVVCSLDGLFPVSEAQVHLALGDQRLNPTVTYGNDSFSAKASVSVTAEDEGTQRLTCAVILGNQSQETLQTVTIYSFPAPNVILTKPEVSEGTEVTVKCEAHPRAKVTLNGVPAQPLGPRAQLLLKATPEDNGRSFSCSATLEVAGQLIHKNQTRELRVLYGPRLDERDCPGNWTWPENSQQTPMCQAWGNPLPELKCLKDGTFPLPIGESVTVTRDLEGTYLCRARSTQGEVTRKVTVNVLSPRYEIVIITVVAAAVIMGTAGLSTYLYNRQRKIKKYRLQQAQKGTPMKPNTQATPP
In experiment [9] the test system is Liver. The experiment is described as follows: Antioxidant activity in rat liver microsomal membranes assessed as inhibition of Fe(2+)/ascorbate-induced lipid peroxidation. It counts as functional, microsomes, microsome. (In general: Microsomes from liver hold many membrane-bound enzymes, among them those of drug oxidation.)
Experiment [10] can be described thus: Displacement of [3H]-diazepam from benzodiazepine receptor in rat brain membranes after 30 mins. It counts as cell membranes, Membrane. (In general: Loss of bound radioactivity is the signal in a displacement assay; it reports binding, not function.)
In experiment [11] the test system is T47D. As to the kind of experiment: Cytotoxicity against human T47D cells. It counts as functional, cell-based.

Broadly, the IC50 is the midpoint of a concentration-inhibition curve. For the molecule `c1cnc2c(c1)Nc1ccncc1S2`, the half-inhibitory concentration (IC50) amounted to 0.46 µg/mL (≈ 2.29 µM) in experiment [1], 0.46 µg/mL (≈ 2.29 µM) in [2] and 0.72 µg/mL (≈ 3.58 µM) in experiment [3].

On to `CN(C)CCCN1c2ccncc2Sc2ncccc21`, for which the 50% inhibitory concentration (IC50) in experiment [1] came out at 6.3 µg/mL (≈ 22 µM); in experiment [3], 11.3 µg/mL (≈ 39.5 µM).

Take `CCN(C)CC#CCN1c2ccncc2Sc2ccncc21`: in [1], the 50% inhibitory concentration (IC50) was in the range of 24.8 to 29.2 µg/mL (≈ 79.9 to 94.1 µM).

In turn, `CCN(CC)CC#CCN1c2ccncc2Sc2ccncc21` came in with an IC50 in experiment [1] of 24.8 to 29.2 µg/mL (≈ 76.4 to 90 µM).

For `C[n+]1cc2c(c3ccccc31)Nc1c(O)cc(-c3ccccc3)cc1S2.[Cl-]`, the figures for the IC50 in experiment [1], in experiment [4] and in experiment [2] were 0.5 to 7.5 µg/mL, 0.5 to 12 µg/mL and 0.7 to 11.5 µg/mL, respectively.

Turning to `C#CCN1c2ccncc2Sc2ncccc21`, the concentration for half-maximal inhibition (IC50) in experiment [3] lay in the range of 28.4 to 32.9 µg/mL (≈ 119 to 137 µM).

Take `O=[N+]([O-])c1cnc2c(c1)Sc1cc(Cl)ccc1N2`: the “inhibition zone (IZ)” value in experiment [5] is on record as 8 - 12 mm; in experiment [6], 8 - 15 mm; in experiment [7] it was 12 mm.

Turning to `O=[N+]([O-])c1cnc2c(c1)Sc1cc(Br)ccc1N2`, the “inhibition zone (IZ)” value in experiment [5] is 8 - 12 mm; in experiment [6] it was 15 mm; in experiment [7], 7 - 12 mm.

Take `O=C(O)c1ccc(C2CCN(Cc3ccc4c(c3)Nc3nccnc3S4)CC2)cc1`: in [8], the IC50 was 0.42 to 1 µM.

Regarding `NC(=O)C1CCCN(Cc2ccc3c(c2)Nc2nccnc2S3)C1` (centres undefined), the IC50 in experiment [8] lay within 0.27 to 1.4 µM.

`Clc1ccc2c(c1)Sc1cc3ccccc3nc1N2`: in [9], the half-inhibitory concentration (IC50) fell in the range of 2 to 3 µg/mL.

In the case of `CCn1c(=O)c2c(c3ccccc31)Nc1ccccc1S2`, in experiment [6], the MIC result is reported as “>=200 ug”.

In turn, `O=C(O)CCC1CCN(Cc2ccc3c(c2)Nc2nccnc2S3)CC1` came in with an IC50 in [8] of 0.47 µM.

On to `CC(CCC1CCN(Cc2ccc3c(c2)Nc2nccnc2S3)CC1)C(=O)O` (centres undefined), for which the IC50 in [8] lay in the range of 0.42 to 1 µM.

`CN1c2ccncc2Sc2ncccc21`: the IC50 in experiment [3] lay in the range of 28.4 to 32.9 µg/mL (≈ 132 to 153 µM).

Turning to `Cn1c(=O)c2c(c3ccccc31)Nc1ccccc1S2`, the MIC result in [6] is reported as “>=200 ug”.

In experiment [10], `N#Cc1c(O)ncc2c1Nc1cc(Cl)ccc1S2` yielded a concentration for half-maximal inhibition (IC50) of 0.31 to 0.91 µM.

Take `O=[N+]([O-])c1ccc(N2c3ccncc3Sc3ccncc32)c([N+](=O)[O-])c1`: the 50% inhibitory concentration (IC50) in experiment [9] was found to be 107 µM.

Consider `CN(C)S(=O)(=O)N1CCN(Cc2ccc3c(c2)Nc2nccnc2S3)CC1`, for which, in experiment [8], the IC50 was in the range of 0.27 to 1.4 µM.

Consider `N#Cc1c2c(c[nH]c1=O)Sc1ccc(N)cc1N2`, for which the half-maximal inhibitory concentration (IC50) in [10] lay in the range of 0.31 to 0.91 µM.

In turn, `O=C(O)CC1CC2CCC(C1)N(Cc1ccc3c(c1)Nc1nccnc1S3)C2` (centres undefined) displayed a concentration for half-maximal inhibition (IC50) in experiment [8] of 0.42 to 1 µM.

As for `c1ccc2c3c(cnc2c1)Nc1cnc2ccccc2c1S3`, the 50% inhibitory concentration (IC50) in [9] is 1 µM.

Consider `O=[N+]([O-])c1cnc2c(c1)Sc1cccc(Cl)c1N2`, for which the “inhibition zone (IZ)” value in [5] is listed as 12 mm; in [6] it was 8 - 15 mm; in experiment [7] it was 7 - 12 mm.

For the molecule `N#Cc1c(O)ncc2c1Nc1ccc(Cl)cc1S2`, in experiment [10], the half-inhibitory concentration (IC50) fell in the range of 0.31 to 0.91 µM.

For `CCN(CC)CCCN1c2ccc3ccccc3c2Sc2cc3ccccc3nc21`, the half-inhibitory concentration (IC50) turned out to be 0.8 µg/mL (≈ 1.93 µM) in [1], 5.9 µg/mL (≈ 14.3 µM) in experiment [11] and 0.98 µg/mL (≈ 2.37 µM) in experiment [2].

As to `N#Cc1c2c(c[nH]c1=O)S(=O)(=O)c1c(Cl)cccc1N2`, the 50% inhibitory concentration (IC50) in experiment [10] is 0.31 to 0.91 µM.

As for `C#CCN1c2cccc(C(F)(F)F)c2Sc2cnc3ccccc3c21`, inhibition in [4] was half-maximal at 7.71 µg/mL (≈ 21.6 µM) (IC50).

Take `c1ccc2nc3c(cc2c1)Sc1ccc2ccccc2c1N3`: in experiment [9], the IC50 is 2 µg/mL.

Take `c1cc2c(cn1)Sc1ccncc1N2CCN1CCCC1`: the half-maximal inhibitory concentration (IC50) in experiment [9] worked out at 125 µM.

As for `O=S(=O)(NC1CCN(Cc2ccc3c(c2)Nc2nccnc2S3)CC1)N1CCCCC1`, the IC50 in experiment [8] was 0.27 to 1.4 µM.

On to `CN1CCCCC1CCN1c2ccc(F)cc2Sc2cnc3ccccc3c21` (centres undefined), for which the IC50 in [4] and in experiment [3] was 5.92 to 6.96 µg/mL (≈ 15 to 17.7 µM) throughout.

`CNS(=O)(=O)NC1CCN(Cc2ccc3c(c2)Nc2nccnc2S3)CC1` showed a half-inhibitory concentration (IC50) in experiment [8] of 0.27 to 1.4 µM.

Consider `COc1ccc2c(c1)Sc1cc3ccccc3nc1N2`, for which, in [9], the IC50 lay in the range of 2 to 3 µg/mL.

Take `c1ccc2c(c1)Nc1nc3ccccc3cc1S2`: the IC50 in experiment [9] lay in the range of 2 to 3 µg/mL.

`CSc1ccc2c(c1)Sc1cnc3ccccc3c1N2Cc1ccccc1`: the figures for the IC50 in [4] and in [3] were 7.59 µg/mL (≈ 19.6 µM) and 8.71 µg/mL (≈ 22.5 µM), respectively.

`CN1CCCCC1CCN1c2ccncc2Sc2ncccc21` (centres undefined): the IC50 in [3] is 28.4 to 32.9 µg/mL (≈ 87 to 101 µM).

The molecule `c1cnc2c(n1)Nc1cc(CN3CCCCC3)ccc1S2` showed an IC50 in [8] of 0.27 to 1.4 µM.

Take `CN(C)CCCOc1ccc2c(c1)Nc1c(c[n+](C)c3ccccc13)S2.[Cl-]`: the half-inhibitory concentration (IC50) in [1], in experiment [4], in experiment [11] and in experiment [2] was no more than 3 µg/mL each time.

For `O=[N+]([O-])c1cnc2c(c1)Sc1cccc(Br)c1N2`, the “inhibition zone (IZ)” value was 8 - 12 mm in experiment [5], 8 - 15 mm in experiment [6] and 7 - 12 mm in [7].
